Converted amounts (≈) assume the structure as drawn.

The test system of series [1] is promastigotes of Leishmania donovani (MHOM/IN/1983/AG83). The experiment in a line: In vitro antileishmanial activity, Trypan blue dye exclusion method. The format is cell-based. The conditions noted are these: Leishmania donovani, 72 h, L. donovani promastigotes, 22 ± 1 °C, 50% growth inhibition, read-out: IC50 Using Trypan Blue Dye Exclusion Method. The procedure: The compounds (23a–f, 24a–f, and 25a–g) were initially screened for their in vitro antileishmanial activity against promastigotes of Leishmania donovani (MHOM/IN/1983/AG83) utilizing the Trypan blue dye exclusion method and the plasmid relaxation assay using amphotericin B and camphothesin as standard reference drugs, respectively.
The promastigotes were harvested from the culture vials, counted, and 2 × 10^6 cells/well were seeded in a 48-well culture plate. The antileishmanial screening of all the derivatives, 23a–f, 24a–f, and 25a–g, as well as the positive control, was performed at various concentrations (2 μg/mL, 4 μg/mL, 8 μg/mL, and 16 μg/mL) added in triplicate. The plate was incubated at 22 ± 1 °C in the BOD incubator for 72 h. After 72 h, each well was counted for the number of viable parasites using the Trypan blue dye exclusion method, and the percentage growth inhibition was calculated by using the formula: Percentage viability=No. of viable cells in treated well/No. of viable cells in blank well×100 Percentage growth inhibition = 100 − percentage viability […]
The IC50 (inhibitory concentration at which 50% of the parasites were dead) value was obtained by plotting a linear dose–response curve in SPSS software (Version 23). […]
Parasite strain and culture conditions:
The SSG-sensitive Indian strain of Leishmania donovani (MHOM/IN/1983/AG83) obtained from CSIR-IICB, Kolkata, was used for the study. The promastigotes of these strains were maintained in Medium 199+10% FCS (Foetal Calf Serum) by serial sub-culturing at an ambient temperature of 22±1°C every 72 […]
In vitro antileishmanial activity
Trypan blue dye exclusion method
For carrying out the antileishmanial activity in vitro, promastigotes of Leishmania donovani were used.
The promastigotes were harvested from the culture vials, counted, and 2 × 10^6 cells/well were seeded in a 48-well culture plate. Further, compounds at various concentrations (2 μg/mL, 4 μg/mL, 8 μg/mL and 16 μg/mL) were added in triplets. No drug was added to the well serving as a blank, and amphotericin B was added to the well serving as the positive control. The plate was incubated at 22 ± 1°C in the BOD incubator for 72 hours. After 72 hours, each well was counted for the number of viable parasites using the trypan blue dye exclusion method, and the percentage growth inhibition was calculated by using the formula:
Percentage growth inhibition = 100 – percentage viability
IC50 (inhibitory concentration at which 50% of the parasites were dead) was obtained by plotting a linear dose-response curve in SPSS software (Version 23). […]
8.0) after being stained with ethidium bromide (0.5 µg/mL). Plotting the percentage of supercoiled DNA versus drug concentrations allowed researchers to determine the 50% inhibition concentration (IC50) values of LTopIB inhibition as the 50% reduction of supercoiled DNA.
Characterization data of spirooxindole derivatives (23a-f, 24a-f, 25a-g).
(1'S,2'R,3S,7a'S)-1'-(4-chlorophenyl)-2'-(4-fluorobenzoyl)-5-methyl-1',2',5',6',7',7a'-hexahydrospiro [indoline-3,3'-pyrrolizin]-2-one (23a): The product was synthesized utilizing the microwave-irradiated approach, and purified by column chromatography over silica gel using hexane/EtOAc (8:2) as an eluent; Physical Appearance: light yellow solid; Yield: 98%; Rf (EtOAc/hexane: 1:1) = 0.48; m.p. 182-184 °C; […]
(1'S,2'R,3S,7a'S)-5-fluoro-2'-(4-fluorobenzoyl)-1'-(4-methoxyphenyl)-1',2',5',6',7',7a'-hexahydro spiro[indoline-3,3'-pyrrolizin]-2-one (23b): The product was synthesized utilizing the microwave-irradiated approach, and purified by column chromatography over silica gel using hexane/EtOAc (7:3) as an eluent; Physical Appearance: light yellow solid; Yield: 66%; Rf (EtOAc/hexane: 1:1) = 0.45; m.p. 161-

Series [2] has as its target Leishmania DNA topoisomerase type IB (purified recombinant LTopIB) (Leishmania donovani, UniProt A0A3Q8IHS4+Q8WQM6). The experiment in a line: Plasmid relaxation assay (relaxation of supercoiled plasmid DNA). The format is biochemical. To be noted: LTopIB inhibition, 50% reduction of supercoiled DNA; read-out: IC50 Using Plasmid Relaxation Assay. As to the method: The relaxation of supercoiled plasmid DNA is the method used for the determination of LTopIB activity. Various doses of each compound were treated with one unit of pure LTopIB (the enzyme to relax 0.5 µg of supercoiled DNA for 30 min at 37 °C) for 20 min at 4 °C. The reaction mixture, including 0.5 μg of supercoiled pBluescript SK(−) plasmid, 10 mM Tris-HCl buffer pH 7.5, 5 mM MgCl2, 0.1 mM EDTA, 15 µg/mL of bovine serum albumin, and 150 mM KCl, was then added in a final volume of 20 μL. After 30 min at 37 °C, the reaction mixtures were stopped by adding 4 μL of loading buffer, which included 5% sarkosyl, 0.12% bromophenol blue, and 25% glycerol. By electrophoresis, the topoisomers were separated on 1% agarose gels and electrophoresed at 2 V/cm for 16 h in a 0.1 M Tris-borate-EDTA buffer (pH 8.0) after being stained with ethidium bromide (0.5 µg/mL). Plotting the percentage of supercoiled DNA versus drug concentrations allowed researchers to determine the 50% inhibition concentration (IC50) values of LTopIB inhibition as the 50% reduction of supercoiled DNA [72].
Because of the presence of spirooxindole systems in the structure of these compounds, we aimed to assess their inhibitory potential on purified recombinant LTopIB measuring the relaxation of supercoiled plasmid DNA. In this regard, all spirooxindole derivatives were assessed for LTopIB inhibition through the prevention of DNA relaxation in a circular DNA plasmid. […] After this initial test, potential inhibitor dose/response curves were performed to obtain their IC50 values. […]
The relaxation of supercoiled plasmid DNA is the method used for the determination of LTopIB activity.
Various doses of each compound were treated with one unit of pure LTopIB (the enzyme to relax 0.5 µg of supercoiled DNA for 30 min at 37 °C) for 20 min at 4 °C. The reaction mixture including 0.5 μg of supercoiled pBluescript SK(−) plasmid, 10 mM Tris-HCl buffer pH 7.5, 5 mM MgCl2, 0.1 mM EDTA, 15 µg/mL bovine serum albumin, and 150 mM KCl was then added in a final volume of 20 μL. After 30 minutes at 37 °C, the reaction mixtures were stopped by adding 4 μL of loading buffer, which included 5% sarkosyl, 0.12% bromophenol blue, and 25% glycerol. By electrophoresis, the topoisomers were separated in 1% agarose gels were electrophoresed at 2 V/cm for 16 hours in a 0.1 M Tris-borate-EDTA buffer (pH 8.0) after being stained with ethidium bromide (0.5 µg/mL). Plotting the percentage of supercoiled DNA versus drug concentrations allowed researchers to determine the 50% inhibition concentration (IC50) values of LTopIB inhibition as the 50% reduction of supercoiled DNA. […]

The subject of another series is LdTopIB. Also on record: method as in PMID 24433962, doi:10.1016/j.molstruc.2019.03.032, PMID 34311084, PMID 36444862. The conditions noted are these: Figure 2; cited from earlier work.
Series [3] relates to promastigotes and the amastigotes forms of Leishmania (L.) species. On the set-up: method as in PMID 24433962, doi:10.1016/j.molstruc.2019.03.032, PMID 34311084, PMID 36444862. The conditions noted are these: Figure 2; cited from earlier work.

Sequence of Leishmania DNA topoisomerase type IB (purified recombinant LTopIB) (Q8WQM6 entry or part of it): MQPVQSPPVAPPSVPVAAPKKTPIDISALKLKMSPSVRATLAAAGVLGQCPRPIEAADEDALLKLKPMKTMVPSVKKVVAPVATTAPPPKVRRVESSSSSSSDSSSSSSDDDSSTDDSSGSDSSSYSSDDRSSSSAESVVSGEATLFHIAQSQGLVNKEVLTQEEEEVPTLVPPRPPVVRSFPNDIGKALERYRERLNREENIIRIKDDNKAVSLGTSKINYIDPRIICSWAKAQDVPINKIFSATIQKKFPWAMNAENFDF
Sequence of Leishmania DNA topoisomerase type IB (purified recombinant LTopIB) (A0A3Q8IHS4 entry or part of it): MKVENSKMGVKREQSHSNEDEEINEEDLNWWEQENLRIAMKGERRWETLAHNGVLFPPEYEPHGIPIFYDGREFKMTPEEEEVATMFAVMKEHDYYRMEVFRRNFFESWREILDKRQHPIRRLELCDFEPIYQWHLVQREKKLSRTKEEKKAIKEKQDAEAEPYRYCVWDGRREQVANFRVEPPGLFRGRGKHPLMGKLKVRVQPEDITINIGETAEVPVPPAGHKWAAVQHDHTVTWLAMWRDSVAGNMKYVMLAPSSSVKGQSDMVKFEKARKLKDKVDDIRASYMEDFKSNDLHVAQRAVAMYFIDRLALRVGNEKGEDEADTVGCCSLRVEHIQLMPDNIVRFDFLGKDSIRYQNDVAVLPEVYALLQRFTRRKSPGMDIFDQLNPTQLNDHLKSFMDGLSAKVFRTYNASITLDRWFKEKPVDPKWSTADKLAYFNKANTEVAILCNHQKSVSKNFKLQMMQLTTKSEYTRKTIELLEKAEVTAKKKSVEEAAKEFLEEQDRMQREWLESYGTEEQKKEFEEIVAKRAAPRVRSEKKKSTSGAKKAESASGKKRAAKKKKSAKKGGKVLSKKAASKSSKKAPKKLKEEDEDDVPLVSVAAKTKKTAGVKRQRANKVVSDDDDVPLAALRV

As for `O=C(c1ccc(F)cc1)[C@@H]1[C@@H](c2ccc(Cl)cc2)[C@H](Cc2ccccc2)N[C@@]12C(=O)Nc1ccccc12` [24d], the melting point was in the range of 104 to 106 °C. The IC50 in series [1] was greater than 20 µM. Moreover, the IC50 in series [2] was greater than 100 µM.
The matching figures for `COc1ccc([C@H]2[C@H](Cc3cc4ccccc4[nH]3)N[C@@]3(C(=O)Nc4ccccc43)[C@@H]2C(=O)c2ccc(Br)cc2)cc1` [25b]: 118 to 120 °C, greater than 10 µM and 89.1 µM.
Consider `COC(=O)C1CC2CCCN2C12C(=O)N(Cc1ccccc1)c1ccccc12` (centres unmarked) [compound 15], for which the melting point lay in the range of 138 to 140 °C. For the same molecule, in the series with LdTopIB, the IC50 is 3.29 µM.
`Cc1ccc(C(CC(=O)c2ccccc2)C2C(=O)Nc3ccccc32)cc1` (centres unmarked) [compound 16]: the melting point was 112 to 114 °C. In series [3], the EC50 was 16.2 µg/mL (≈ 45.6 µM).
Consider `O=C(c1ccc(F)cc1)C1C(c2ccc(Cl)cc2Cl)C2CSCN2C12C(=O)Nc1ccccc12` (centres unmarked) [compound 17], for which the melting point was in the range of 103 to 105 °C. Also, the IC50 in series [3] is 39.8 ± 0.43 µM.
With `O=C1NC(=O)C2(CC(c3ccccc3)N(Cc3ccccc3)C(c3ccccc3)C2)N1c1ccccc1` (centres unmarked) [compound 19], the melting point was in the range of 142 to 144 °C. In series [3], the IC50 is 0.89 µM.

The melting point is the temperature of the solid-liquid transition. Broadly, the IC50 is the point on the concentration scale where inhibition reaches its midpoint. One may read the EC50 as the concentration that produces a half-maximal response.
